Data from patent US10940139B2, “Compounds that interact with the Ras superfamily for the treatment of cancers, inflammatory diseases, rasopathies, and fibrotic disease” (Shy Therapeutics LLC, priority 2017, dated 2021).

Test system: MIA-PACA2 pancreatic cancer cell lines
Experiment: Cell proliferation assay (CellTiter 96 AQueous One)
Type: cell-based
Conditions: Homo sapiens, MIA PaCa-2; at 30 μM, MIA-PACA2
Experimental: Cell lines: Tumor-derived pancreatic cancer cell lines MIA-PACA2 were purchased from ATCC and grown in complete DMEM-High Glucose medium supplemented with penicillin (100 U/mL), streptomycin (100 μg/mL), and 10% heat-inactivated FBS at 37° C. in a humidified incubator with 5% CO2.
Method: Cells are plated at 1000 cells/well density in 96-wells plate, starved ON, and the next day tested small molecules are added to the cells in the final concentration of 30 μM with 0.3% DMSO 3 hours prior to 10% FBS addition. After serum addition cells are incubated for 6 days at 37° C. in a humidified incubator with 5% CO2. For IC50 value determination, serial dilutions of compounds were added to cells under the same conditions.
Assay: At the end of the incubation period, cell cultures are tested using the CellTiter 96® AQueous One Solution Cell Proliferation Assay kit (Promega Corporation, Madison, Wis.) according to the manufacturer specifications. Briefly, assay is performed by adding 20 μl of the CellTiter 96 Aqueous One Solution Reagent directly to culture wells, followed by for 1-4 hours incubation at 37° C. in a humidified incubator with 5% CO2. At the end of incubation time, absorbance at 492 nm is recorded with the 96-well plate reader Eppendorf AF2200, and degree of small molecule-dependent proliferation inhibition is calculated from raw data assuming No Serum cells value as 100%.

| Structure (SMILES) | inhibition at 30 µM |
| --- | --- |
| O=C(Nc1nnc(-c2ccccn2)[nH]1)c1ccc2c(c1)CCO2 [drawing 1386] | 76 to 100% |
| O=C(Cc1c[nH]c2ccccc12)Nc1nnc(-c2ccccn2)[nH]1 [drawing 1387] | 1 to 25% |
| O=C(COc1ccc(F)cc1F)Nc1nnc(-c2ccccn2)[nH]1 [drawing 1388] | 51 to 75% |
| O=C(Nc1nnc(-c2ccccn2)[nH]1)C1CCn2c(cnc2-c2ccccc2)C1 (stereo not drawn) [drawing 1389] | 1 to 25% |
| COc1cccc(CC(=O)Nc2nnc(-c3ccccn3)[nH]2)c1 [drawing 1390] | 25 to 50% |
| Cc1ccc(C(=O)Nc2nnc(-c3ccccn3)[nH]2)cc1S(C)(=O)=O [drawing 1391] | 51 to 75% |
| O=C(CCn1ccc2ccccc21)Nc1nnc(-c2ccccn2)[nH]1 [drawing 1392] | 51 to 75% |
| Cc1oc(-c2ccccc2)nc1C(=O)Nc1nnc(-c2ccccn2)[nH]1 [drawing 1393] | 76 to 100% |
| O=C(Nc1nnc(-c2ccccn2)[nH]1)c1ccn(-c2ccccc2)n1 [drawing 1394] | 76 to 100% |
| Cc1c(C(=O)Nc2nnc(-c3ccccn3)[nH]2)oc2ccccc12 [drawing 1395] | 76 to 100% |
| CC(Oc1ccccc1Cl)C(=O)Nc1nnc(-c2ccccn2)[nH]1 (stereo not drawn) [drawing 1396] | 76 to 100% |
| O=C(Nc1nnc(-c2ccccn2)[nH]1)c1ccn(-c2cccc(F)c2)n1 [drawing 1397] | 76 to 100% |
| COc1ccc(CCC(=O)Nc2nnc(-c3ccccn3)[nH]2)cc1 [drawing 1398] | 51 to 75% |
| COc1ccc2c(ccn2CC(=O)Nc2nnc(-c3ccccn3)[nH]2)c1 [drawing 1399] | 76 to 100% |
| O=C(CCc1c[nH]c2ccccc12)Nc1nnc(-c2ccccn2)[nH]1 [drawing 1400] | 51 to 75% |
| O=C(Nc1nnc(-c2ccccn2)[nH]1)c1ccc2ccccc2n1 [drawing 1401] | 25 to 50% |
| Cc1ccc(CC(=O)Nc2nnc(-c3ccccn3)[nH]2)cc1 [drawing 1402] | 25 to 50% |
| Cn1cc(-c2nc(C(=O)Nc3nnc(-c4ccccn4)[nH]3)cs2)cn1 [drawing 1403] | 76 to 100% |
| Cc1c(C(=O)Nc2nnc(-c3ccccn3)[nH]2)oc2c1C(=O)CCC2 [drawing 1404] | 76 to 100% |
| O=C(Nc1nnc(-c2ccccn2)[nH]1)c1ccc(CN2C(=O)CCC2=O)cc1 [drawing 1405] | 1 to 25% |
| CN(Cc1nnc(-c2ccccc2Cl)o1)Cc1ccccc1C(F)(F)F [drawing 1406] | 25 to 50% |
| O=C(CC1C=CCC1)Nc1nnc(-c2ccccn2)[nH]1 (stereo not drawn) [drawing 1407] | 51 to 75% |
| COc1ccc(CC(=O)Nc2nnc(-c3ccccn3)[nH]2)cc1 [drawing 1408] | 76 to 100% |
| O=C(Cc1cccs1)Nc1nnc(-c2ccccn2)[nH]1 [drawing 1409] | 1 to 25% |
| O=C(Nc1nnc(-c2ccccn2)[nH]1)c1ccc(Oc2ccccc2)nc1 [drawing 1410] | 51 to 75% |
| Cc1noc(C)c1CC(=O)Nc1nnc(-c2ccccn2)[nH]1 [drawing 1411] | 25 to 50% |

| Structure (SMILES) | inhibition at 30 µM |
| --- | --- |
| CC(C)(C)c1noc(CCC(=O)Nc2nnc(-c3ccccn3)[nH]2)n1 [drawing 1412] | 25 to 50% |
| O=C(Cc1ccccc1)NCCC(=O)Nc1nnc(-c2ccccn2)[nH]1 [drawing 1413] | 1 to 25% |
| O=C(Nc1nnc(-c2ccccn2)[nH]1)c1cccc(NC(=O)C2CCCO2)c1 (stereo not drawn) [drawing 1414] | 51 to 75% |
| O=C(CC1CCCC1)NCC(=O)Nc1nnc(-c2ccccn2)[nH]1 [drawing 1415] | 1 to 25% |
| O=C(Nc1nnc(-c2ccccn2)[nH]1)c1ncoc1-c1cccs1 [drawing 1416] | 76 to 100% |
| O=C(CCNC(=O)c1ccco1)Nc1nnc(-c2ccccn2)[nH]1 [drawing 1417] | 76 to 100% |
| CC(C)COC(C)C(=O)Nc1nnc(-c2ccccn2)[nH]1 (stereo not drawn) [drawing 1418] | 76 to 100% |
| Cc1ccc(CC(=O)Nc2nnc(-c3ccccn3)[nH]2)cn1 [drawing 1419] | 51 to 75% |
| CCn1nnc2cc(C(=O)Nc3nnc(-c4ccccn4)[nH]3)ccc21 [drawing 1420] | 51 to 75% |
| O=C(Nc1nnc(-c2ccccn2)[nH]1)c1nc(N2CCOCC2)ncc1Cl [drawing 1421] | 76 to 100% |
| O=C(Nc1nnc(-c2ccccn2)[nH]1)C1Cc2ccccc2O1 (stereo not drawn) [drawing 1422] | 1 to 25% |
| CC(Oc1ccccc1C#N)C(=O)Nc1nnc(-c2ccccn2)[nH]1 (stereo not drawn) [drawing 1423] | 76 to 100% |
| CC(Oc1cccc(C#N)c1)C(=O)Nc1nnc(-c2ccccn2)[nH]1 (stereo not drawn) [drawing 1424] | 76 to 100% |
| CC(Oc1ccc(C(=O)Nc2nnc(-c3ccccn3)[nH]2)cn1)c1ccccc1 (stereo not drawn) [drawing 1425] | 76 to 100% |
| O=C(Nc1nnc(-c2ccccn2)[nH]1)C1CCCN(c2ncccn2)C1 (stereo not drawn) [drawing 1426] | 76 to 100% |
| O=C(Cc1ccc(F)cc1)Nc1nnc(-c2ccccn2)[nH]1 [drawing 1427] | 51 to 75% |
| CC(OCc1ccccc1)C(=O)Nc1nnc(-c2ccccn2)[nH]1 (stereo not drawn) [drawing 1428] | 51 to 75% |
| CC(COCc1ccccc1)C(=O)Nc1nnc(-c2ccccn2)[nH]1 (stereo not drawn) [drawing 1429] | 25 to 50% |
| O=C(Nc1nnc(-c2ccccn2)[nH]1)C1CCCC(C(F)(F)F)C1 (stereo not drawn) [drawing 1430] | 76 to 100% |
| O=C(COCc1ccccc1Cl)Nc1nnc(-c2ccccn2)[nH]1 [drawing 1431] | 76 to 100% |
| O=C(Nc1nnc(-c2ccccn2)[nH]1)C1CC1c1ccc(F)cc1 (stereo not drawn) [drawing 1432] | 51 to 75% |
| Cc1ccc(CC(=O)Nc2nnc(-c3ccccn3)[nH]2)s1 [drawing 1433] | 76 to 100% |
| O=C(Nc1nnc(-c2ccccn2)[nH]1)c1ccc(OCC2CC2)cc1 [drawing 1434] | 76 to 100% |
| N#Cc1cccc(OCC(=O)Nc2nnc(-c3ccccn3)[nH]2)c1 [drawing 1435] | 25 to 50% |
| Cc1cccc(C(=O)Nc2nnc(-c3ccccn3)[nH]2)n1 [drawing 1436] | 51 to 75% |
| CC(Oc1ccc(C#N)cc1)C(=O)Nc1nnc(-c2ccccn2)[nH]1 (stereo not drawn) [drawing 1437] | 76 to 100% |

| Structure (SMILES) | inhibition at 30 µM |
| --- | --- |
| O=C(COc1ccc2c(c1)CCC2)Nc1nnc(-c2ccccn2)[nH]1 [drawing 1438] | 1 to 25% |
| O=C(Nc1nnc(-c2ccccn2)[nH]1)C1CCCN(c2cnccn2)C1 (stereo not drawn) [drawing 1439] | 76 to 100% |
| O=C(Nc1nnc(-c2ccccn2)[nH]1)c1ccc(NC(=O)c2ccccn2)cc1 [drawing 1440] | 25 to 50% |
| COC(=O)c1cncc(C(=O)Nc2nnc(-c3ccccn3)[nH]2)c1 [drawing 1441] | 25 to 50% |
| CCc1ccccc1OCC(=O)Nc1nnc(-c2ccccn2)[nH]1 [drawing 1442] | 76 to 100% |
| CC1CCc2sc(C(=O)Nc3nnc(-c4ccccn4)[nH]3)cc2C1 (stereo not drawn) [drawing 1443] | 76 to 100% |
| Cc1nc(-c2ccccn2)sc1C(=O)Nc1nnc(-c2ccccn2)[nH]1 [drawing 1444] | 76 to 100% |
| Cc1nc2nc(C(F)(F)F)nn2c(C)c1CC(=O)Nc1nnc(-c2ccccn2)[nH]1 [drawing 1445] | 51 to 75% |
| COc1cccc(COCC(=O)Nc2nnc(-c3ccccn3)[nH]2)c1 [drawing 1446] | 51 to 75% |
| COc1ccccc1C1CC1C(=O)Nc1nnc(-c2ccccn2)[nH]1 (stereo not drawn) [drawing 1447] | 25 to 50% |
| O=C(Cn1c(=O)[nH]c2ccccc21)Nc1nnc(-c2ccccn2)[nH]1 [drawing 1448] | 25 to 50% |
| CN(CC(=O)Nc1nnc(-c2ccccn2)[nH]1)Cc1ccccc1 [drawing 1449] | 51 to 75% |
| NC(=O)c1ccc(OCC(=O)Nc2nnc(-c3ccccn3)[nH]2)cc1 [drawing 1450] | 1 to 25% |
| COc1ccccc1-c1cc(C(=O)Nc2nnc(-c3ccccn3)[nH]2)no1 [drawing 1451] | 76 to 100% |
| O=C(Nc1nnc(-c2ccccn2)[nH]1)c1cccc(N2CCCS2(=O)=O)c1 [drawing 1452] | 1 to 25% |
| CC(C)C(=O)Nc1nc(CC(=O)Nc2nnc(-c3ccccn3)[nH]2)cs1 [drawing 1453] | 76 to 100% |
| CC(C)(C)c1nc(C(=O)Nc2nnc(-c3ccccn3)[nH]2)cs1 [drawing 1454] | 76 to 100% |
| O=C(Nc1nnc(-c2ccccn2)[nH]1)C1=NOC(c2ccccc2)C1 (stereo not drawn) [drawing 1455] | 25 to 50% |
| O=C(COc1ccccc1)Nc1nnc(-c2ccccn2)[nH]1 [drawing 1456] | 25 to 50% |
| O=C(Nc1nnc(-c2ccccn2)[nH]1)c1csc(-c2ccco2)n1 [drawing 1457] | 76 to 100% |
| O=C(Nc1nnc(-c2ccccn2)[nH]1)C1CC(=O)N(Cc2cccc(C(F)(F)F)c2)C1 (stereo not drawn) [drawing 1458] | 76 to 100% |
| O=C(Nc1nnc(-c2ccccn2)[nH]1)C1Cc2cc(Cl)ccc2O1 (stereo not drawn) [drawing 1459] | 76 to 100% |
| O=C(Nc1nnc(-c2ccccn2)[nH]1)c1ccc(Oc2cccnc2)cc1 [drawing 1460] | 76 to 100% |
| O=C(Cc1ccc2c(c1)OCCO2)Nc1nnc(-c2ccccn2)[nH]1 [drawing 1461] | 51 to 75% |
| N#CCc1ccc(OCC(=O)Nc2nnc(-c3ccccn3)[nH]2)cc1 [drawing 1462] | 1 to 25% |
| O=C(Nc1nnc(-c2ccccn2)[nH]1)c1ccc(=O)n(CCOc2ccccc2)n1 [drawing 1463] | 76 to 100% |
